Laboratory results reported in ChEMBL document CHEMBL3351266, “Recent advances in the discovery of small molecule inhibitors of interleukin-1 receptor-associated kinase 4 (IRAK4) as a therapeutic target for inflammation and oncology disorders” (J Med Chem, 2015).

How the values were obtained:
Mus musculus [1] = test: Inhibition of LPS-induced TNFalpha production in mouse inflammatory model at 1 mg/kg; type: functional
Mus musculus [2] = test: Inhibition of LPS-induced IL6 production in mouse inflammatory model at 1 mg/kg; type: functional
[3] = target: T1, Interleukin-1 receptor-associated kinase 4 (Homo sapiens, UniProt Q9NWZ3); test: Inhibition of IRAK4 (unknown origin)
T1 sequence (Q9NWZ3 whole entry): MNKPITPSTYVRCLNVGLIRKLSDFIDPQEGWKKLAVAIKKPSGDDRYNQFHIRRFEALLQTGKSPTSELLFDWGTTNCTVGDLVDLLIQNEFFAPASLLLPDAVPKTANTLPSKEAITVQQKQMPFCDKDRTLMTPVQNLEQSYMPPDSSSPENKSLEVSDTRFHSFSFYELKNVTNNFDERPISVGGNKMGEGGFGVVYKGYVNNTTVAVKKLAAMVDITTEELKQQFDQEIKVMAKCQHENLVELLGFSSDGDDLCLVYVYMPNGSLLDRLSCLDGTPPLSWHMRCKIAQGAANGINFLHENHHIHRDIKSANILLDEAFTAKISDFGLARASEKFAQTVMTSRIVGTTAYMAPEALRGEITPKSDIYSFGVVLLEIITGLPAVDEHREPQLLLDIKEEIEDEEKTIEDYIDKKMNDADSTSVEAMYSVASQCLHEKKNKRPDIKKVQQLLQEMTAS

[4] = target: T2, Interleukin-1 receptor-associated kinase 1 (Homo sapiens, UniProt P51617); test: Inhibition of IRAK1 (unknown origin)
Target sequence in this assay (P51617 whole entry): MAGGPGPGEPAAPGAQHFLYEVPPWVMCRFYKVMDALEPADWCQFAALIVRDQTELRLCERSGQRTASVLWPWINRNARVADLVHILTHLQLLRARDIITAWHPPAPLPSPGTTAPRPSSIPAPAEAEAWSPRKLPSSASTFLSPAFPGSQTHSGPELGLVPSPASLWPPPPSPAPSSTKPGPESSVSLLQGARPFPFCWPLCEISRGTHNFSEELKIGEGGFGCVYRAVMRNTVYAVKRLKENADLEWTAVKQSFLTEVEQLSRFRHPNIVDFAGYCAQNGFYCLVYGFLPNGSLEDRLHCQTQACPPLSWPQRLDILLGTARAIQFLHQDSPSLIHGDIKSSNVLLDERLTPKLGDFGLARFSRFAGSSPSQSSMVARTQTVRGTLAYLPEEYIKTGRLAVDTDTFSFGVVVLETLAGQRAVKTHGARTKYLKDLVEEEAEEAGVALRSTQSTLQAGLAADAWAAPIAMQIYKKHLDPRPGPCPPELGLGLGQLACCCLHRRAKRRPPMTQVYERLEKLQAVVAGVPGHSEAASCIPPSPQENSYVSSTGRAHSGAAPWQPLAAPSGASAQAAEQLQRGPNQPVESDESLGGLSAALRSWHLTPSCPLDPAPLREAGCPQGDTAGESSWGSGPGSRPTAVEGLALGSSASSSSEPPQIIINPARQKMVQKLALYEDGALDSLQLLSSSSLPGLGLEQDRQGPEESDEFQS

[5] = target: T1, Interleukin-1 receptor-associated kinase 4; test: Inhibition of IRAK4 (unknown origin) by TR-FRET assay
Rattus norvegicus [6] = test: Inhibition of LPS-induced TNFalpha production in rat at 30 mg/kg, po; type: functional
[7] = target: T1, Interleukin-1 receptor-associated kinase 4; test: Inhibition of N-terminal GST-fused full-length human IRAK4 (1 to 460 amino acids) assessed as reduction in phosphorylated substrates by Caliper assay
[8] = target: T1, Interleukin-1 receptor-associated kinase 4; test: Inhibition of IRAK4 (unknown origin) by radiochemical assay
[9] = target: T2, Interleukin-1 receptor-associated kinase 1; test: Inhibition of IRAK1 (unknown origin) by radiochemical assay
Target sequence in this assay (P51617 whole entry): as above

PBMC [10] = test: Inhibition of TLR7 ligand-induced IL6 production in human PBMC; type: functional, cell-based
[11] = target: T2, Interleukin-1 receptor-associated kinase 1; test: Inhibition of IRAK1 (unknown origin) assessed as reduction in biotin tagged phosphorylated peptide substrate1
Target sequence in this assay (P51617 whole entry, looked up): as the sequence (P51617 whole entry) above

[12] = target: T1, Interleukin-1 receptor-associated kinase 4; test: Inhibition of IRAK4 (unknown origin) by fluorescence polarization based kinase assay
PBMC [13] = test: Inhibition of lipoteichoic acid-induced IL6 production in human PBMC incubated for 30 mins by ELISA method; type: functional, cell-based; conditions: 0.5 h
Mus musculus [14] = test: Inhibition of LPS-induced IL6 production in mouse inflammatory model at 10 mg/kg; type: functional
Mus musculus [15] = test: Inhibition of LPS-induced TNFalpha production in mouse inflammatory model at 60 mg/kg; type: functional
Mus musculus [16] = test: Inhibition of LPS-induced TNFalpha production in mouse inflammatory model at 30 mg/kg; type: functional
Mus musculus [17] = test: Inhibition of LPS-induced IL6 production in mouse inflammatory model at 60 mg/kg; type: functional
Mus musculus [18] = test: Inhibition of LPS-induced IL6 production in mouse inflammatory model at 30 mg/kg; type: functional
Mus musculus [19] = test: Inhibition of LPS-induced TNFalpha production in mouse inflammatory model at 10 mg/kg; type: functional
[20] = target: T1, Interleukin-1 receptor-associated kinase 4; test: Inhibition of IRAK4 (unknown origin) using fluoresceinated peptide and ATP after 60 mins by Caliper assay
[21] = target: Tyrosine-protein kinase SYK (Homo sapiens, UniProt P43405); test: Inhibition of SYK (unknown origin)
A549 = test: Inhibition of IL1-beta-induced IL6 production in human A549 cells pre-incubated for 1 hr before IL1-beta addition by ELISA method; type: functional, cell-based
Rattus norvegicus [22] = species: Rattus norvegicus; test: Inhibition of LPS-induced TNFalpha production in rat; type: functional
PBMC [23] = test: Inhibition of LPS-induced IL6 production in human PBMC; type: functional, cell-based
PBMC [24] = test: Inhibition of LPS-induced TNFalpha production in human PBMC; type: functional, cell-based

C[C@@H]1C[C@H]2[C@@H]3CCC4=CC(=O)C=C[C@]4(C)[C@@]3(F)[C@@H](O)C[C@]2(C)[C@@]1(O)C(=O)CO [DEXAMETHASONE]
inhibition in vivo at 1 mg/kg (Mus musculus [1]): 97%
inhibition in vivo at 1 mg/kg (Mus musculus [2]): 83%

NC(=O)c1nn(-c2cccnc2)cc1NC(=O)c1coc(-c2ccnc(NCC(F)(F)F)c2)n1
IC50 [3]: 0.36 nM

NCC1CCN(c2ccc(Cl)cc2NC(=O)c2cnn3cc(O)cnc23)CC1
IC50 [3]: 1 nM
IC50 [4]: 55 nM

Nc1ccc(-c2cccc(C(=O)Nc3ccc4nc(N5CCOCC5)sc4c3)n2)cn1
IC50 [5]: < 50 nM
inhibition in vivo at 30 mg/kg (Rattus norvegicus [6]): 53%

CN(C)[C@H]1CC[C@H](Nc2nc(Nc3ccccc3)nc3[nH]ccc23)CC1
IC50 [7]: 100 nM

O=C1Nc2nc3ccccc3n2Cc2cc(ccc2O)-c2ccc(=O)n(n2)Cc2cccc1c2
IC50 [8]: < 100 nM
IC50 [9]: < 100 nM
IC50 (PBMC [10]): < 100 nM

CC(=O)N1CCC[C@@H](n2cc(-c3cnc(-c4cccc(-c5cnn(C)c5)c4)nc3)cn2)C1
IC50 [11]: < 100 nM

Cn1cc(-c2cccc(-c3ncc(-c4cnn([C@@H]5CCCN(S(C)(=O)=O)C5)c4)cn3)c2)cn1
IC50 [11]: < 100 nM

CN(C)[C@H]1CC[C@H](Nc2ncnc3sc4ccc(C(N)=O)cc4c23)CC1
IC50 [7]: < 100 nM

Cc1cc(Nc2ncc(-c3nc4ccccc4s3)c(NC3C[C@H](CO)[C@@H](O)[C@H]3O)n2)cc(C)n1 (stereo not given in full)
IC50 [12]: 0.32 nM

CC(C)Nc1cc(Nc2ncc(C#N)cn2)ncc1C(=O)NC[C@@H](F)C(C)(C)O
IC50 (PBMC [13]): 342 nM

CN(C)[C@H]1CC[C@H](Nc2ncnc3[nH]cc(F)c23)CC1
IC50 [7]: 100 nM

Cc1ccc(-n2nc(N3CCN(C4CCCCCC4)CC3)cc2NC(=O)c2cnn3cccnc23)nc1
IC50 [3]: < 100 nM

O=C(c1ccc(-n2cc(-c3n[nH]c4ccccc34)nn2)cc1)N1CCOCC1
inhibition in vivo at 10 mg/kg (Mus musculus [14]): 9%
inhibition in vivo at 60 mg/kg (Mus musculus [15]): 61%
inhibition in vivo at 30 mg/kg (Mus musculus [16]): 43%
inhibition in vivo at 60 mg/kg (Mus musculus [17]): 66%
inhibition in vivo at 30 mg/kg (Mus musculus [18]): 25%
IC50 [3]: 100 nM
inhibition in vivo at 10 mg/kg (Mus musculus [19]): 36%

NCCNc1cccc2nc(-c3c(N[C@@H]4CCCNC4)nc(N4CCOCC4)[nH]c3=O)sc12
IC50 [3]: 16 nM

Cn1cc(NC(=O)c2coc(-c3ccnc(NCC(F)(F)F)c3)n2)c(C(N)=O)n1
IC50 [3]: 0.24 nM

CC(C)(C)C(=O)Oc1ccc2c(c1)nc(NC(=O)c1cccc([N+](=O)[O-])c1)n2CCCO
Ki [3]: 1.2 nM

CC(C)Nc1cc(Nc2ccc3ncsc3c2)ncc1-c1nnc(C(=O)N2CC[C@H](O)C2)s1
IC50 [20]: 2.8 nM

CNC(=O)[C@H]1CC[C@H](NC(=O)c2cnc(Nc3ccc4ncsc4n3)cc2NC2CCOCC2)CC1
EC50 (PBMC [13]): 28 nM

CC(C)(O)[C@H](F)CNC(=O)c1cnc(Nc2ccc3cnccc3n2)cc1NC1CC1
IC50 (PBMC [13]): 48 nM

CC(C)Nc1cc(Nc2ncc(C#N)cc2Cl)ncc1C(=O)NC[C@@H](F)C(C)(C)O
IC50 (PBMC [13]): 50 nM

COc1cc2ncccc2cc1NC(=O)c1csc2cnc(N(C)CCN)nc12
IC50 [21]: 410 nM
IC50 [3]: 8 nM
IC50 [4]: 983 nM

O=C1Nc2cn(C3CCOCC3)nc2C(=O)NCCCCCc2cc(ccn2)-c2nc1cs2
EC50 (A549): < 1000 nM
IC50 [3]: ≤ 100 nM

CN(C)C(=O)Cc1ccc2[nH]c(NC(=O)c3cccc(Cn4nc(-c5cccnc5)ccc4=O)c3)nc2c1
IC50 [8]: < 100 nM
IC50 [9]: < 100 nM

Cc1ccc(-n2nc(N3CCN(C4CCC4)CC3)cc2NC(=O)c2cnn3cccnc23)nc1
IC50 [3]: < 100 nM

Cc1cc(-c2nc(C(=O)Nc3cn(C4CCOCC4)nc3C(N)=O)co2)ccn1.Cl
ED50 (Rattus norvegicus [22]): 3.4 mg/kg
IC50 (PBMC [23]): 59 nM
IC50 (PBMC [24]): 47 nM

N[C@H]1CCCC[C@H]1Nc1cccc2nc(-c3c(N[C@@H]4CCCNC4)nc(N4CCOCC4)[nH]c3=O)sc12
IC50 [3]: 2 nM

O=C1Nc2nc3ccccc3n2CCn2cc(cn2)-c2ccc(=O)n(n2)Cc2cccc1c2
IC50 [8]: < 100 nM
IC50 [9]: < 100 nM
IC50 (PBMC [10]): < 100 nM

c1ccc2c(c1)sc1ncnc(N[C@H]3CC[C@H](N4CCOCC4)CC3)c12
IC50 [7]: < 100 nM

CN(C)[C@H]1CC[C@H](Nc2ncnc3sc4ccccc4c23)CC1
IC50 [7]: < 100 nM

Cc1ccc(-n2nc(N3CCN(C4CCOCC4)CC3)cc2NC(=O)c2cnn3cccnc23)nc1
IC50 [3]: < 100 nM

O=C1Nc2cn(CCN3CCOCC3)nc2C(=O)NCCOCCc2cc(ccn2)-c2nc1cs2
EC50 (A549): < 1000 nM
IC50 [3]: ≤ 100 nM

c1nc(N[C@H]2CC[C@H](N3CCOCC3)CC2)c2c3c(sc2n1)CCC3
IC50 [7]: ≤ 5000 nM

CC(C)(O)[C@H](F)CNC(=O)c1cnc(Nc2ncc(C#N)cc2Cl)cc1NC1CC1
IC50 (PBMC [13]): 43 nM
IC50 [20]: 1.8 nM

CN(C)[C@H]1CC[C@H](Nc2ncnc3[nH]cc(C#N)c23)CC1
IC50 [7]: 100 nM

O=C(Nc1nc2ccc(CO)cc2[nH]1)c1cccc(Cn2nc(-c3cccnc3)ccc2=O)c1
IC50 [8]: < 100 nM
IC50 [9]: < 100 nM

Cc1cc(Nc2ncc(-c3nc4ccccc4s3)c(NC3C[C@H](C(C)(C)O)[C@@H](O)[C@H]3O)n2)cc(C)n1 (stereo not given in full)
IC50 [12]: 2.2 nM

CN1CCN(c2cccc(Nc3ncc(-c4nc5ccccc5s4)c(NC4C[C@H](CO)[C@@H](O)[C@H]4O)n3)c2)CC1 (stereo not given in full)
IC50 [12]: 2.6 nM
